Source: US20230158259A1, “PRODUCTS OF MANUFACTURE AND METHODS FOR TREATING, AMELIORATING OR PREVENTING MICROBIAL INFECTIONS” (TOPELIA AUST LIMITED, priority 2020, published 2023)

What was measured:
COVID-19 coronavirus = assay type: in vivo, human; settings: group of elderly cruise travelers
coronavirus COVID-19 = assay type: in vivo; settings: after 4 days of osteltamivir alone, started at time of contact

SMILES | contraction of COVID-19 coronavirus (COVID-19 coronavirus) | test for the virus upon arrival home after the cruise (COVID-19 coronavirus) | blood result for COVID-19 virus (coronavirus COVID-19)
CCN(CC)CCCC(C)Nc1ccnc2cc(Cl)ccc12 (stereo not drawn) [chloroquine] | None contract COVID-19 coronavirus | negative | 
CCOC(=O)C1=C[C@@H](OC(CC)CC)[C@H](NC(C)=O)[C@@H](N)C1 [osteltamivir, oseltamivir] |  |  | positive
